Test results: patent publication US20150202167A1, “Trans-Clomiphene Formulations and Uses Thereof” (REPROS THERAPEUTICS INC., priority 2012, published 2015)
Values belong to the compound of their own block, whether it stands above or below them.

Legend:
[1] = noted by Ernst et al.; cited from earlier work
[2] = cited from earlier work
[3] = Particle size analysis by laser diffraction (Malvern Mastersizer 2000); type: physicochemical; details: for d10: 10% of the total volume of particles is less than the indicated size; for d10 / d50 / d90: final method conditions, 0.1% (w/v) Span 85 in hexane; for d50: 50% of the total volume of particles is less than the indicated size; for d90: 90% of the total volume of particles is less than the indicated size
Text: Trans-clomiphene is characterized for size using an instrument adapted to measure equivalent spherical volume diameter, such as a Malvern Mastersizer 2000 laser diffraction particle size analyzer or equivalent instrument. After being characterized for size, the trans-clomiphene is then milled, if necessary, preferably using a pin mill under suitable conditions of mill rotation rate and feed rate, to bring the particle size value within the above mentioned limits according to the invention. The efficiency of milling is checked by sampling using a Malvern Mastersizer 2000 laser diffraction particle size analyzer and the final particle size is checked in a similar manner.
The values found from characterizing a large number of “unknown” particles can be plotted frequency vs. diameter. This gives a characteristic curve representing size distribution of the sample, i.e., cumulative percentage under size distribution curve. Values from this can be read off directly or plotted on log-probability paper to give an appropriate straight line. The mean equivalent spherical volume diameter is the 50% undersize value. The mean equivalent spherical volume diameter found is thus a statistical representation of a theoretical particle having the same property as the “unknown” particle. The following is a description by way of example.
Repeated particle size measurements of the sample dispersed in 0.1% (w/v) Span™ 85 in hexane were collected while recirculating over the course of approximately five minutes with a pump speed of 1000 rpm. Particle size (d10, d50, d90) was plotted versus the recirculation time. Values for both the d10 and d50 fell within a narrow range for the duration. The decrease in the d90 primarily occurred over the first 90 seconds with a gradual decrease thereafter.
Repeated particle size measurements of the sample were collected while recirculating for 90 seconds with increasing pump speeds to examine the effect of pump speed on particle size. […] A pump speed of 1500 rpm was selected to optimize both dispersion of agglomerates and suspension of the larger particles and to minimize attrition of the blades and needles.
One particle size measurement of each sample of trans-clomiphene citrate was collected using the final method conditions. Three of the lots shared a similar bimodal particle size distribution whereas one lot contained a third mode consisting of much larger particles. The remaining lot of was bimodal but reflected much larger particle sizes than the distributions of the earlier three lots with bimodal distributions.
Particle size data was acquired using a Malvern Instruments MS2000 equipped with a Hydro 2000 μP dispersion unit. Data was collected and analyzed using Mastersizer 2000 v. 5.60 software using volume based measurements. NIST-traceable glass beads were used as the reference standard.
Particle size of trans-clomiphene citrate using the final method conditions is reproduced below: […]

[4] = Evaluation of dispersants for trans-clomiphene citrate; type: physicochemical; details: 0.01% (w/v) Tween 20 (polysorbate 20) in water
Experimental: 0.1% (w/v) Lecithin in Isopar G™, 0.1% (w/v) Span™ 85 (sorbitane trioleate) in hexane, and 0.01% (w/v) Tween® 20 (polysorbate 20) in water were evaluated as dispersants for trans-clomiphene citrate. Samples suspended easily in each of the two organic dispersants and settled out of suspension slowly. […] Samples dispersed in the Isopar G™-based and hexane-based dispersants were examined microscopically. […] 0.1% (w/v) Span™ 85 in hexane was selected for further analysis.

Compound: CCN(CC)CCOc1ccc(/C(=C(/Cl)c2ccccc2)c2ccccc2)cc1 (single isomer, unassigned) [trans-isomer, trans-2-(p-(2-chloro-1,2-diphenylvinyl)phenoxy)triethylamine]
estrogenic / antiestrogenic character [1]: antiestrogenic

Compound: CCN(CC)CCOc1ccc(C(=C(Cl)c2ccccc2)c2ccccc2)cc1 [clomiphene]
FSH, LH ([2]; both young and old men after treatment with clomiphene): increases | free and total testosterone ([2]; men, young men showing significant increases): increases

Compound: CCN(CC)CCOc1ccc(/C(=C(/Cl)c2ccccc2)c2ccccc2)cc1.O=C(O)CC(O)(CC(=O)O)C(=O)O [compound 16204]
d10 [3]: 8.058 μm | d50 [3]: 106.743 μm | d90 [3]: 318.464 μm

Compound: CCN(CC)CCOc1ccc(/C(=C(/Cl)c2ccccc2)c2ccccc2)cc1.O=C(O)CC(O)(CC(=O)O)C(=O)O [compound 24712]
d10 [3]: 4.038 μm | d50 [3]: 13.902 μm | d90 [3]: 218.573 μm

Compound: CCN(CC)CCOc1ccc(/C(=C(/Cl)c2ccccc2)c2ccccc2)cc1.O=C(O)CC(O)(CC(=O)O)C(=O)O [compound 24867]
d10 [3]: 4.794 μm | d50 [3]: 13.418 μm | d90 [3]: 70.289 μm

Next, values leading:

d10 [3]: 4.850 μm | d50 [3]: 13.455 μm | d90 [3]: 76.891 μm
Compound: CCN(CC)CCOc1ccc(/C(=C(/Cl)c2ccccc2)c2ccccc2)cc1.O=C(O)CC(O)(CC(=O)O)C(=O)O [compound 31249]

d10 [3]: 3.373 μm | d50 [3]: 9.664 μm | d90 [3]: 44.995 μm | Vol under % ([3]; size 0.010 μm): 0.00% | Vol under % ([3]; size 0.011 μm): 0.00% | Vol under % ([3]; size 0.013 μm): 0.00% | Vol under % ([3]; size 0.015 μm): 0.00% | Vol under % ([3]; size 0.017 μm): 0.00% | Vol under % ([3]; size 0.020 μm): 0.00% | Vol under % ([3]; size 0.023 μm): 0.00% | Vol under % ([3]; size 0.026 μm): 0.00% | Vol under % ([3]; size 0.030 μm): 0.00% | Vol under % ([3]; size 0.035 μm): 0.00% | Vol under % ([3]; size 0.040 μm): 0.00% | Vol under % ([3]; size 0.046 μm): 0.00% | Vol under % ([3]; size 0.052 μm): 0.00% | Vol under % ([3]; size 0.060 μm): 0.00% | Vol under % ([3]; size 0.069 μm): 0.00% | Vol under % ([3]; size 0.079 μm): 0.00% | Vol under % ([3]; size 0.091 μm): 0.00% | Vol under % ([3]; size 0.105 μm): 0.00% | Vol under % ([3]; size 0.120 μm): 0.00% | Vol under % ([3]; size 0.138 μm): 0.00% | Vol under % ([3]; size 0.158 μm): 0.00% | Vol under % ([3]; size 0.182 μm): 0.00% | Vol under % ([3]; size 0.209 μm): 0.00% | Vol under % ([3]; size 0.240 μm): 0.00% | Vol under % ([3]; size 0.275 μm): 0.00% | Vol under % ([3]; size 0.316 μm): 0.00% | Vol under % ([3]; size 0.363 μm): 0.00% | Vol under % ([3]; size 0.417 μm): 0.00% | Vol under % ([3]; size 0.479 μm): 0.00% | Vol under % ([3]; size 0.550 μm): 0.00% | Vol under % ([3]; size 0.631 μm): 0.00% | Vol under % ([3]; size 0.724 μm): 0.00% | Vol under % ([3]; size 0.832 μm): 0.00% | Vol under % ([3]; size 0.965 μm): 0.02% | Vol under % ([3]; size 1.096 μm): 0.10% | Vol under % ([3]; size 1.259 μm): 0.28% | Vol under % ([3]; size 1.445 μm): 0.60% | Vol under % ([3]; size 1.660 μm): 1.12% | Vol under % ([3]; size 1.905 μm): 1.93% | Vol under % ([3]; size 2.188 μm): 3.10% | Vol under % ([3]; size 2.512 μm): 4.72% | Vol under % ([3]; size 2.884 μm): 6.86% | Vol under % ([3]; size 3.311 μm): 9.59% | Vol under % ([3]; size 3.802 μm): 12.94% | Vol under % ([3]; size 4.385 μm): 16.94% | Vol under % ([3]; size 5.012 μm): 21.58% | Vol under % ([3]; size 5.754 μm): 26.82% | Vol under % ([3]; size 6.607 μm): 32.58% | Vol under % ([3]; size 7.586 μm): 38.74% | Vol under % ([3]; size 8.710 μm): 45.14% | Vol under % ([3]; size 10.00 μm): 51.59% | Vol under % ([3]; size 11.482 μm): 57.87% | Vol under % ([3]; size 13.183 μm): 63.80% | Vol under % ([3]; size 15.136 μm): 69.20% | Vol under % ([3]; size 17.378 μm): 73.95% | Vol under % ([3]; size 19.953 μm): 77.98% | Vol under % ([3]; size 22.909 μm): 81.29% | Vol under % ([3]; size 26.303 μm): 83.92% | Vol under % ([3]; size 30.200 μm): 85.99% | Vol under % ([3]; size 34.674 μm): 87.62% | Vol under % ([3]; size 39.811 μm): 88.95% | Vol under % ([3]; size 45.709 μm): 90.13% | Vol under % ([3]; size 52.481 μm): 91.28% | Vol under % ([3]; size 60.256 μm): 92.50% | Vol under % ([3]; size 69.183 μm): 93.84% | Vol under % ([3]; size 79.433 μm): 95.28% | Vol under % ([3]; size 91.201 μm): 96.72% | Vol under % ([3]; size 104.713 μm): 98.02% | Vol under % ([3]; size 120.226 μm): 99.04% | Vol under % ([3]; size 138.038 μm): 99.72% | Vol under % ([3]; size 158.489 μm): 99.97% | Vol under % ([3]; size 181.970 μm): 100.00% | Vol under % ([3]; size 208.930 μm): 100.00% | Vol under % ([3]; size 239.883 μm): 100.00% | Vol under % ([3]; size 275.423 μm): 100.00% | Vol under % ([3]; size 316.228 μm): 100.00% | Vol under % ([3]; size 363.078 μm): 100.00% | Vol under % ([3]; size 416.869 μm): 100.00% | Vol under % ([3]; size 478.630 μm): 100.00% | Vol under % ([3]; size 549.541 μm): 100.00% | Vol under % ([3]; size 630.957 μm): 100.00% | Vol under % ([3]; size 724.438 μm): 100.00% | Vol under % ([3]; size 831.764 μm): 100.00% | Vol under % ([3]; size 954.993 μm): 100.00% | Vol under % ([3]; size 1096.478 μm): 100.00%
Compound: CCN(CC)CCOc1ccc(/C(=C(/Cl)c2ccccc2)c2ccccc2)cc1.O=C(O)CC(O)(CC(=O)O)C(=O)O [compound 32305]

Dissolution of the sample suspended in aqueous dispersant [4]: Partial dissolution
Compound: trans-clomiphene citrate
